Results: patent US4269940A, “Microbiological alkane oxidation process” (priority 1979, dated 1981)
Like-named read-outs stand apart in the source and are kept apart here.

How the values were obtained:
[1] = tested on: P(40) particulate fraction of Methylosinus sp. (CRL-15, NRRL B-11,202); test: Oxidation of n-alkenes and n-alkanes by P(40) particulate fraction (Table X); type: biochemical; conditions: P(40) fraction, 30° C.
[2] = tested on: secondary alcohol dehydrogenase (SADH); test: Substrate specificity and Michaelis constants of purified SADH; type: biochemical, Pseudomonas sp. ATCC 21439
Experimental: Secondary alcohol dehydrogenase (SADH) from an obligate methanol utilizer, Pseudomonas sp. ATCC 21439 was purified as follows. […] 0.05 M sodium phosphate buffer, pH 7.0 with 0.5mM dithiothretol (buffer A) and were disrupted sonically (5×1 min.). The crude extract was separated by centrifugation. The crude extract was heat-treated at 50° C. in a water bath for 10 minutes. The resulting precipitate was removed by centrifugation. To the supernatant solution, 25 ml of protamine sulfate solution (2% solution in 0.1 M Tris base) was added dropwise with continuous stirring. After standing for 30 minutes, the extract was centrifuged. The supernatant solution was fractionated with solid ammonium sulfate. […] This DEAE-cellulose eluate was concentrated by ammonium sulfate fractionation. Material precipitating between 30 and 50% ammonium sulfate saturation was collected by centrifugation and dialyzed overnight against A. This fraction was further washed and filtered through an Amicon unit with XM 50 membrane. The concentrated fraction (6 ml) inside the Amicon unit was applied to an Affi-Gel Blue column (0.8 cm ×18 cm) which had been equilibrated with buffer A for affinity chromatography. The column was washed overnight with buffer A (0.18 ml./min.) and then was eluted with buffer A containing 5 mM NAD. Each 1 ml. fraction was collected.
The purified secondary alcohol dehydrogenase enzyme (SADH) may be used directly for converting C3 -C6 secondary alcohols to the corresponding methyl ketones by the procedures described above; however, a source of NAD^+ must be added to the reaction medium. One can determine the NAD-linked secondary alcohol dehydrogenase activity with a fluorescence spectrophotometer (Perkin Elmer, Model MPF 44A) by following the formation of reduced NAD (Ex 340 nm, Em 460 nm). The assay system (3 ml.) will typically contain: sodium phosphate buffer pH 7.0, 150 μmol; NAD 1.0 μmol; a given amount of enzyme preparation; and 20 μmol secondary alcohol. The reaction is started by the addition of secondary alcohol. One unit of SADH enzyme activity represents the reduction of one nmole NAD per minute.

[3] = tested on: cell suspensions of the strains of C1-utilizers tested; test: Production of methyl ketones from secondary alcohols by cell suspensions of C1-utilizers (strains tested); type: cell-based; conditions: cell suspensions of C1-utilizers
Excerpt: The substrate specificity for the oxidation of C3 -C6 secondary alcohols by the strains of C1 -utilizers was studied.

[4] = tested on: purified secondary alcohol dehydrogenase; test: Stoichiometry of isopropanol and sec-butanol oxidation by the purified secondary alcohol dehydrogenase (Table XXIV); type: biochemical, Pichia sp. NRRL Y-11,328; conditions: substrate 5.7 (isopropanol) or 6.0 (2-butanol) μmoles; for Product formed (acetone or 2-butanone): gas chromatography; for NAD^+ reduced: spectrophotometrically at 340 nm
Experimental: ^a The estimation of NAD^+ reduced was measured
spectrophotometrically at 340 nm.
^b The estimation of products was detected by gas chromatography as
described in the methods.

[5] = tested on: cell-free extracts of strain ATCC 21439; conditions: 30° C.
Experimental: The reaction mixtures 3 ml (1.0 mg protein) were incubated at 30°
C. for 10 min. (exp. 1) and for 20 min. (exp. 2) in the presence of 1.0
^a Determined gas chromatographically.
^b Determined fluorescence spectrophotometrically. Endogenous
consumption of NAD was corrected.

[6] = tested on: purified secondary alcohol dehydrogenase; test: Substrate and electron acceptor specificity of purified yeast secondary alcohol dehydrogenase; type: biochemical, Pichia sp. NRRL Y-11,328; conditions: for Oxidation by the purified yeast enzyme (in words): examined spectrophotometrically
Experimental: (§1) Large scale cultures of Pichia sp. NRRL Y-11,328 were grown with aeration at 30° C. in a 14-liter New Brunswick f fermentor in a mineral salt medium containing methanol (0.4%, v/v) as the sole carbon source. The cells (200 g., wet weight) were suspended in 50 mm sodium phosphate buffer, pH 7.0, containing 1 mM dithiothreitol (buffer A), and crude extracts were prepared as described previously. To the crude extracts, 18 ml. of protamine sulfate solution [2% solution in 0.1 M tris (hydroxymethyl) aminomethane (tris) base] was added dropwise with continuous stirring. After standing for 30 min., the extracts were centrifuged at 20,000 x g. for 60 min. The supernatant solution was fractioned with solid ammonium sulfate. Extracts were brought to 50% of saturation with respect to ammonium sulfate by addition of 313 g. of the salt per liter of extract. Precipitated proteins was removed by centrifugation, and 137 g. of ammonium sulfate was added per liter of the supernatant liquid to bring it to 70% of saturation. Material precipitating between 50 and 70% of saturation was collected by centrifugation and dissolved in buffer A. This preparation was dialyzed overnight against buffer A, and the dialyzed material was applied to a DEAE-cellulose column (5×40 cm) that had been equilibrated with buffer A. The sample was washed with 200 ml. of buffer A and eluted with 2 liters of buffer A that contained NaCl in a linear gradient running from a concentration of 0 to 0.5 M. Fractions of 15 ml. were collected. Fractions containing secondary alcohol dehydrogenase activity were pooled and were termed DEAE-cellulose eluate. The DEAE-cellulose eluate was concentrated by ammonium sulfate fractionation.
(§2) Secondary alcohol dehydrogenase activity was measured spectrophotometrically at 340 nm with a NAD^+ as an electron acceptor. The reaction mixture, in a total 3.0 ml., contained 50 mM phosphate buffer, pH 8.0, 5μmoles NAD^+, crude extracts, and substrate. The reactions were started by addition of 100 μof 0.1 M substrate and the rate of NAD^+ reduction was measured. Protein concentration was determined by the method of Lowry et al.
The substrate specificity of the purified secondary alcohol dehydrogenase was examined spectrophotometrically.

[7] = tested on: cell-free soluble extracts (SADH system); test: Cofactor requirement of cell-free SADH system (2-butanol to 2-butanone); type: biochemical
Experimental: The clear supernatant contained the SADH activity. […] The reaction was started by the addition of substrate.
Catalytic activity was also assayed by fluorescence spectrophotometry.

[8] = tested on: P(40) particulate fraction of Methylosinus sp. (CRL-15, NRRL B-11,202); test: Stoichiometry of propylene epoxidation and methane hydroxylation by P(40) fraction (Table XIV); type: biochemical; conditions: 5.0 μmoles substrate; for Product formed: gas chromatography; for O2 consumed: polarographic; for NADH oxidized: spectrophotometric
Experimental: The particulate P(40) fraction of Methylosinus sp. (CRL-15, NRRL B-11,202) was used to determine the stoichiometry of hydroxylation and epoxidation reactions. The stoichiometry of methane or propylene-dependant NADH oxidation, oxygen consumption and product formation was approximately 1:1:1 Table XIV. This is consistent with methane or propylene oxygenation being catalyzed by a mono-oxygenase.
^a Under identical condition of reaction, the estimation of NADH
oxidized was carried out spectrophotometrically, the estimation of oxygen
consumed was measured polarographically, and the estimation of product
formed was carried out by gas chromatography.

[9] = tested on: P(40) particulate fraction of Methylosinus sp. (CRL-15, NRRL B-11,202); test: Substrate competition: effect of methane on propylene epoxidizing activity of P(40) fraction (Table XIII); type: biochemical; conditions: gaseous substrate as named
Experimental: The oxidation of methane and propylene by particulate [(P)40 and (P)80] fractions and soluble [S(80)] fraction was measured at 30° C. by estimating the production of methanol and propylene oxide, respectively. The reaction mixtures contained in 1.0 ml: 150 mM potassium phosphate buffer, pH 7.0 containing 5 mM MgC2, 0.6 ml; 10 μmoles NADH, and cellular fraction.
Reaction mixtures were contained in 10 ml vials at 4° C. Vials were sealed with rubber caps. The gaseous phase in the vials was removed using vacuum and then was replaced with a gas mixture of methane or propylene and oxygen at a 1:1, v/v ratio. Oxidation of other gaseous n-alkanes and n-alkenes was examined as described above. For liquid substrates, 10 μ of substrate was used directly.
The hydroxylation of methane and the epoxidation of propylene by particulate fractions of methane-utilizing bacteria required oxygen and NADH. The question of whether the same or a similar enzyme was involved in the oxidation of both substrates was examined by substrate competition experiments. The experiment consisted of determining the effect of methane on the oxidation of propylene to propylene oxide by the P(40) particulate fraction of Methylosinus sp. (CRL-15, NRRL B-11,202).

[10] = tested on: Methylobacter vinelandii (CRL M5Y NRRL B-11,218); test: Microbiological oxidation of cyclic hydrocarbons by methane-grown washed cells (Example 7); type: cell-based; conditions: aerobic
Experimental: A 0.5 ml sample of each washed cell suspension (2 mg cells) was put into 10 ml vials at 4° C. which were sealed with a rubber cap. The gaseous phase of the vials was removed with vacuum and then was replaced with a gas mixture of the oxidative substrate (e.g., methane) and oxygen at a 1:1 v/v ratio. […] Samples of product (3 μl) were withdrawn periodically with a microsyringe and the products were analyzed by gas chromatography (ionization flame detector column).
Methylobacter vinelandii (CRL M5Y NRRL B-11,218) was aerobically grown in a methane-containing nutrient medium in the manner described in Example 1 and the methane-grown washed cells were contacted under aerobic conditions with cyclohexane, benzene and toluene.

[11] = tested on: purified secondary alcohol dehydrogenase; test: Inhibition of purified yeast secondary alcohol dehydrogenase; type: biochemical, Pichia sp. NRRL Y-11,328; conditions: purified yeast enzyme
Experimental: as §1, §2
Various primary alcohols not oxidized by secondary alcohol dehydrogenase were tested as potential inhibitors of enzyme activity.

[12] = tested on: cell-free particulate fractions derived from the methylotrophic microorganisms; test: Inhibition of conversion of C3-C6 n-alkanes to sec. alcohols by cell-free particulate fractions; type: biochemical; conditions: oxygen and NADH
Excerpt: The conditions for preparing the cell suspensions or the cell-free particulate fractions from methane-grown methylotroph microorganisms is the same as described above.

C=CCC [1-Butene]
Rate of product formation (substrate to epoxide or alcohol) [1]: 2.18 μ moles/hr/mg of protein

CCC(C)O (stereo not shown) [2-butanol]
Oxidation by purified SADH (in words) [2]: highest
Rate of oxidation of secondary alcohols to methyl ketones [3]: higher rates
Product formed (acetone or 2-butanone) [4]: 5.7 µmol
NAD^+ reduced [4]: 5.9 µmol
2-Butanol consumed ([5]; experiment 1, 10 min.): 260 nmol
2-Butanol consumed ([5]; experiment 2, 20 min.): 530 nmol
NAD consumed ([5]; experiment 2, 20 min.): 540 nmol
Oxidation by the purified yeast enzyme (in words) [6]: catalyzed the oxidation

NC(=O)c1ccc[n+]([C@@H]2O[C@H](COP(=O)([O-])OP(=O)(O)OC[C@H]3O[C@@H](n4cnc5c(N)ncnc54)[C@H](OP(=O)(O)O)[C@@H]3O)[C@@H](O)[C@H]2O)c1 [NADP, reference compound]
Effectiveness as cofactor of the cell-free SADH system [7]: not effective
Function as electron acceptor/carrier for the purified yeast enzyme [6]: could not act as electron carrier

C [Methane]
Product formed [8]: 4.2 µmol
O2 consumed [8]: 4.6 µmol
NADH oxidized [8]: 4.8 µmol
Rate of product formation (substrate to epoxide or alcohol) [1]: 4.8 μ moles/hr/mg of protein
Propylene oxide produced [9]: 0 μmoles/hr/mg. protein

C[n+]1c2ccccc2nc2ccccc21 [phenazine methosulfate, reference compound]
Effectiveness as cofactor of the cell-free SADH system [7]: not effective
Function as electron acceptor/carrier for the purified yeast enzyme [6]: could not act as electron carrier

C=CCCC [1-Pentene]
Rate of product formation (substrate to epoxide or alcohol) [1]: 0 μ moles/hr/mg of protein

Cc1ccccc1 [toluene]
Oxidative conversion [10]: no oxidative conversion was detected

N[C@@H](CCC(=O)N[C@@H](CS)C(=O)NCC(=O)O)C(=O)O [glutathione]
Effectiveness as cofactor of the cell-free SADH system [7]: not effective
Inhibition of secondary alcohol dehydrogenase activity (in words) [11]: strongly inhibited

NC(=O)c1ccc[n+]([C@@H]2O[C@H](COP(=O)([O-])OP(=O)(O)OC[C@H]3O[C@@H](n4cnc5c(N)ncnc54)[C@H](O)[C@@H]3O)[C@@H](O)[C@H]2O)c1 [NAD, Nicotinamide adenine dinucleotide, reference compound]
Effectiveness as cofactor of the cell-free SADH system [7]: required
Function as electron acceptor/carrier for the purified yeast enzyme [6]: required

C=CC [Propylene]
Inhibition of conversion of C3-C6 n-alkanes to sec. alcohols (in words) [12]: inhibit
Inhibition of conversion of C3-C6 n-alkanes to sec. alcohols (in words) ([12]; listed as propylene): inhibited
Product formed [8]: 4.5 µmol
O2 consumed [8]: 4.8 µmol
NADH oxidized [8]: 5.0 µmol
Rate of product formation (substrate to epoxide or alcohol) [1]: 4.1 μ moles/hr/mg of protein
Propylene oxide produced [9]: 4.3 μmoles/hr/mg. protein

CC(C)O [2-propanol]
Oxidation by purified SADH (in words) [2]: highest
Rate of oxidation of secondary alcohols to methyl ketones [3]: higher rates
Product formed (acetone or 2-butanone) [4]: 5.5 µmol
NAD^+ reduced [4]: 5.4 µmol
Oxidation by the purified yeast enzyme (in words) [6]: catalyzed the oxidation

C1CCCCC1 [Cyclohexane]
Conversion rate to cyclohexanol [10]: 1.5 μmoles/2 hr./mg. protein

C=C [Ethylene]
Rate of product formation (substrate to epoxide or alcohol) [1]: 1.27 μ moles/hr/mg of protein

NC(=O)C1=CN([C@@H]2O[C@H](COP(=O)(O)OP(=O)(O)OC[C@H]3O[C@@H](n4cnc5c(N)ncnc54)[C@H](OP(=O)(O)O)[C@@H]3O)[C@@H](O)[C@H]2O)C=CC1 [NAD(P)H]
Effectiveness as cofactor of the cell-free SADH system [7]: not effective

CC [Ethane]
Rate of product formation (substrate to epoxide or alcohol) [1]: 3.2 μ moles/hr/mg of protein

O=C1C(Cl)=CC(=Nc2ccc(O)cc2)C=C1Cl [dichlorophenol indophenol, reference compound]
Effectiveness as cofactor of the cell-free SADH system [7]: not effective
Function as electron acceptor/carrier for the purified yeast enzyme [6]: could not act as electron carrier

c1ccccc1 [benzene]
Oxidative conversion [10]: no oxidative conversion was detected

Cc1cc2nc3c(=O)[nH]c(=O)nc-3n(C[C@H](O)[C@H](O)[C@H](O)COP(=O)(O)OP(=O)(O)OC[C@H]3O[C@@H](n4cnc5c(N)ncnc54)[C@H](O)[C@@H]3O)c2cc1C [FAD, flavin adenine dinucleotide, reference compound]
Effectiveness as cofactor of the cell-free SADH system [7]: not effective
Function as electron acceptor/carrier for the purified yeast enzyme [6]: could not act as electron carrier

C=CC=C [Butadiene]
Rate of product formation (substrate to epoxide or alcohol) [1]: 0.63 μ moles/hr/mg of protein
